This passage reports IC50 results from patent US10053454B2 (Bristol-Myers Squibb Company, priority 2013, dated 2018).

Some results are limits rather than exact numbers.

This assay addresses BRD4 (Homo sapiens, UniProt O60885). The assay can be described thus: Time Resolved Fluorescence Resonance Energy Transfer (TR-FRET) binding assay. The settings on record: one of the FRET assays described (BRD4 construct not given). A general note: Time-resolved FRET reads energy transfer from a long-lived donor to a nearby acceptor.

Turning to `Cc1noc(C)c1-c1cc(C(N)=O)c2c(c1)c1ccc(Br)cc1n2CC1CC1` [Example 34, 7-bromo-9-(cyclopropylmethyl)-3-(3,5-dimethyl-4-isoxazolyl)-9H-carbazole-1-carboxamide], the half-inhibitory concentration (IC50) (as a rule, the midpoint of a concentration-inhibition curve) was < 500 nM.

`Cc1noc(C)c1-c1cc(C(N)=O)c2c(c1)c1cc(Br)c(Br)cc1n2CC1CC1` [Example 35, 6,7-dibromo-9-(cyclopropylmethyl)-3-(3,5-dimethyl-4-isoxazolyl)-9H-carbazole-1-carboxamide]: the 50% inhibitory concentration (IC50) was < 500 nM. The same measure for `Cc1noc(C)c1-c1cc(C(N)=O)c2c(c1)c1ccc(-c3ccncc3)cc1n2CC1CC1` [Example 36, 9-(cyclopropylmethyl)-3-(3,5-dimethyl-4-isoxazolyl)-7-(4-pyridinyl)-9H-carbazole-1-carboxamide]: < 500 nM; for `CNc1ccc2c3cc(-c4c(C)noc4C)cc(C(N)=O)c3n(CC3CC3)c2c1` [Example 37, 9-(cyclopropylmethyl)-3-(3,5-dimethyl-4-isoxazolyl)-7-(methylamino)-9H-carbazole-1-carboxamide]: < 500 nM; for `Cc1noc(C)c1-c1cc(C(N)=O)c2c(c1)c1ccc(N(C)C)cc1n2CC1CC1` [Example 38, 9-(cyclopropylmethyl)-7-(dimethylamino)-3-(3,5-dimethyl-4-isoxazolyl)-9H-carbazole-1-carboxamide]: < 50 nM.

With `Cc1noc(C)c1-c1cc(C(N)=O)c2c(c1)c1ccc(NCC3CCCC3)cc1n2CC1CC1` [Example 39, 7-(cyclopentylmethylamino)-9-(cyclopropylmethyl)-3-(3,5-dimethyl-4-isoxazolyl)-9H-carbazole-1-carboxamide], the IC50 was < 500 nM.

Consider `CC(=O)N(C)c1ccc2c3cc(-c4c(C)noc4C)cc(C(N)=O)c3n(CC3CC3)c2c1` [Example 40, 7-(acetyl(methyl)amino)-9-(cyclopropylmethyl)-3-(3,5-dimethyl-4-isoxazolyl)-9H-carbazole-1-carboxamide], for which the half-inhibitory concentration (IC50) was < 50 nM. On to `Cc1noc(C)c1-c1cc(C(N)=O)c2c(c1)c1ccc(N3CCCCC3=O)cc1n2CC1CC1` [Example 42, 9-(cyclopropylmethyl)-3-(3,5-dimethyl-4-isoxazolyl)-7-(2-oxo-1-piperidinyl)-9H-carbazole-1-carboxamide], for which the half-inhibitory concentration (IC50) is < 500 nM.

On to `Cc1noc(C)c1-c1cc(C(N)=O)c2c(c1)c1ccc(N3CCCOC3=O)cc1n2CC1CC1` [Example 43, 9-(cyclopropylmethyl)-3-(3,5-dimethyl-4-isoxazolyl)-7-(2-oxo-1,3-oxazinan-3-yl)-9H-carbazole-1-carboxamide], for which the IC50 was < 50 nM. The figure for `Cc1noc(C)c1-c1cc(C(N)=O)c2c(c1)c1ccc(N3CCOC3=O)cc1n2CC1CC1` [Example 45, 9-(cyclopropylmethyl)-3-(3,5-dimethyl-4-isoxazolyl)-7-(2-oxo-1,3-oxazolidin-3-yl)-9H-carbazole-1-carboxamide] is < 500 nM; for `Cc1noc(C)c1-c1cc(C(N)=O)c2c(c1)c1ccc(CO)cc1n2CC1CC1` [Example 46, 9-(cyclopropylmethyl)-3-(3,5-dimethyl-4-isoxazolyl)-7-(hydroxymethyl)-9H-carbazole-1-carboxamide] it is < 500 nM. The figure for `Cc1noc(C)c1-c1cc(C(N)=O)c2c(c1)c1ccc(C=O)cc1n2CC1CC1` [Example 47, 9-(cyclopropylmethyl)-3-(3,5-dimethyl-4-isoxazolyl)-7-formyl-9H-carbazole-1-carboxamide] is < 500 nM; for `Cc1noc(C)c1-c1cc(C(N)=O)c2c(c1)c1ccc(O)cc1n2CC1CC1` [Example 48, 9-(cyclopropylmethyl)-3-(3,5-dimethyl-4-isoxazolyl)-7-hydroxy-9H-carbazole-1-carboxamide] it is < 500 nM; for `COc1ccc2c3cc(-c4c(C)noc4C)cc(C(N)=O)c3n(CC3CC3)c2c1` [Example 49, 9-(cyclopropylmethyl)-3-(3,5-dimethyl-4-isoxazolyl)-7-methoxy-9H-carbazole-1-carboxamide] it is < 50 nM.

For the compound `Cc1noc(C)c1-c1cc(C(N)=O)c2c(c1)c1ccc(OC(=O)N3CCOCC3)cc1n2CC1CC1` [Example 50, 8-carbamoyl-9-(cyclopropylmethyl)-6-(3,5-dimethyl-4-isoxazolyl)-9H-carbazol-2-yl morpholine-4-carboxylate], the concentration for half-maximal inhibition (IC50) is < 500 nM.

On to `Cc1noc(C)c1-c1cc(C(N)=O)c2c(c1)c1ccc(CN3CCOCC3)cc1n2CC1CC1` [Example 51, 9-(cyclopropylmethyl)-3-(3,5-dimethyl-4-isoxazolyl)-7-(4-morpholinylmethyl)-9H-carbazole-1-carboxamide], for which the concentration for half-maximal inhibition (IC50) was < 500 nM. The figure for `Cc1noc(C)c1-c1cc(C(N)=O)c2c(c1)c1ccc(C(C)(C)N3CCOCC3)cc1n2CC1CC1` [Example 52, 9-(cyclopropylmethyl)-3-(3,5-dimethyl-4-isoxazolyl)-7-(1-methyl-1-(4-morpholinyl)ethyl)-9H-carbazole-1-carboxamide] is < 50 nM; for `Cc1noc(C)c1-c1cc(C(N)=O)c2c(c1)c1ccc(C(C)(C)O)cc1n2CC1CC1` [Example 53, 9-(cyclopropylmethyl)-3-(3,5-dimethyl-4-isoxazolyl)-7-(1-hydroxy-1-methylethyl)-9H-carbazole-1-carboxamide] it is < 500 nM; for `Cc1noc(C)c1-c1cc(C(N)=O)c2c(c1)c1ccc(C(C)(C)O)cc1n2S(=O)(=O)C1CC1` [Example 55, 9-(cyclopropylsulfonyl)-3-(3,5-dimethyl-4-isoxazolyl)-7-(1-hydroxy-1-methylethyl)-9H-carbazole-1-carboxamide] it is < 50 nM. With `Cc1nocc1-c1cc(C(N)=O)c2c(c1)c1ccc(C(=O)N3C[C@@H](C)O[C@@H](C)C3)cc1n2CC1CC1` [Example 56, 9-(cyclopropylmethyl)-7-((cis-2,6-dimethyl-4-morpholinyl)carbonyl)-3-(3-methyl-4-isoxazolyl)-9H-carbazole-1-carboxamide], the IC50 is < 500 nM.

As for `Cc1oncc1-c1cc(C(N)=O)c2c(c1)c1ccc(C(=O)N3C[C@@H](C)O[C@@H](C)C3)cc1n2CC1CC1` [Example 57, 9-(cyclopropylmethyl)-7-((cis-2,6-dimethyl-4-morpholinyl)carbonyl)-3-(5-methyl-4-isoxazolyl)-9H-carbazole-1-carboxamide], the IC50 was < 500 nM. The same measure for `Cc1noc(C)c1-c1cc(C#N)c2[nH]c3cc(C(=O)N4CCOCC4)ccc3c2c1` [Example 58, 3-(3,5-dimethyl-4-isoxazolyl)-7-(4-morpholinylcarbonyl)-9H-carbazole-1-carbonitrile]: < 5000 nM. The same measure for `Cc1noc(C)c1-c1cc(C#N)c2c(c1)c1ccc(C(=O)N3CCOCC3)cc1n2CC1CC1` [Example 59, 9-(cyclopropylmethyl)-3-(3,5-dimethyl-4-isoxazolyl)-7-(4-morpholinylcarbonyl)-9H-carbazole-1-carbonitrile]: < 5000 nM. The same measure for `CC(=O)n1c2cc(C(=O)N3C[C@@H](C)O[C@@H](C)C3)ccc2c2cc(-c3c(C)noc3C)cc(C(N)=O)c21` [Example 60, 9-acetyl-3-(3,5-dimethyl-4-isoxazolyl)-7-(cis-2,6-dimethylmorpholine-4-carbonyl)-9H-carbazole-1-carboxamide]: < 5000 nM; for `CCNC(=O)n1c2cc(C(=O)N3C[C@@H](C)O[C@@H](C)C3)ccc2c2cc(-c3c(C)noc3C)cc(C(N)=O)c21` [Example 61, 3-(3,5-dimethyl-4-isoxazolyl)-7-(cis-2,6-dimethylmorpholine-4-carbonyl)-N9-ethyl-9H-carbazole-1,9-dicarboxamide]: < 5000 nM. For the compound `Cc1cnc(-c2cc(-c3c(C)noc3C)cc3c2[nH]c2cc(C(=O)N4CCOCC4)ccc23)o1` [Example 62, 3-(3,5-dimethyl-4-isoxazolyl)-1-(5-methyl-1,3-oxazol-2-yl)-7-(4-morpholinylcarbonyl)-9H-carbazole], the IC50 is < 5000 nM. As to `Cc1noc(C)c1-c1cc(C(N)=S)c2[nH]c3cc(C(=S)N4CCOCC4)ccc3c2c1` [Example 63, 3-(3,5-dimethyl-4-isoxazolyl)-7-(4-morpholinylcarbonothioyl)-9H-carbazole-1-carbothioamide], the IC50 is < 500 nM. Consider `Cc1noc(C)c1-c1cc(C(N)=S)c2[nH]c3cc(C(=O)N4CCOCC4)ccc3c2c1` [Example 64, 3-(3,5-dimethyl-4-isoxazolyl)-7-(4-morpholinylcarbonyl)-9H-carbazole-1-carbothioamide], for which the IC50 is < 5000 nM. With `Cc1csc(-c2cc(-c3c(C)noc3C)cc3c2[nH]c2cc(C(=O)N4CCOCC4)ccc23)n1` [Example 65], the IC50 is < 5000 nM. `CCn1c2cc(C(=O)N3CCOCC3)ccc2c2cc(-c3c(C)noc3C)cc(C(N)=S)c21` [Example 67, 3-(3,5-dimethyl-4-isoxazolyl)-9-ethyl-7-(4-morpholinylcarbonyl)-9H-carbazole-1-carbothioamide]: the IC50 was < 500 nM. For `Cc1noc(C)c1-c1cc(C(N)=S)c2c(c1)c1ccc(C(=O)N3CCOCC3)cc1n2CC1CC1` [Example 68, 9-(cyclopropylmethyl)-3-(3,5-dimethyl-4-isoxazolyl)-7-(4-morpholinylcarbonyl)-9H-carbazole-1-carbothioamide], the IC50 was < 5000 nM. The figure for `Cc1noc(C)c1-c1cc(-c2nc[nH]n2)c2[nH]c3cc(C(=O)N4CCOCC4)ccc3c2c1` [Example 69, 3-(3,5-dimethyl-4-isoxazolyl)-7-(4-morpholinylcarbonyl)-1-(1H-1,2,4-triazol-3-yl)-9H-carbazole] is < 500 nM; for `Cc1noc(C)c1-c1cc(-c2nc[nH]n2)c2c(c1)c1ccc(C(=O)N3CCOCC3)cc1n2CC1CC1` [Example 70, 9-(cyclopropylmethyl)-3-(3,5-dimethyl-4-isoxazolyl)-7-(4-morpholinylcarbonyl)-1-(1H-1,2,4-triazol-3-yl)-9H-carbazole] it is < 5000 nM. The figure for `Cc1noc(C)c1-c1cc(C(N)=O)c2c(c1)c1ccc(N3CCCS3(=O)=O)cc1n2CC1CC1` [Example 71, 9-(cyclopropylmethyl)-3-(3,5-dimethyl-4-isoxazolyl)-7-(1,1-dioxido-2-isothiazolidinyl)-9H-carbazole-1-carboxamide] is < 50 nM.
